Assay results from ChEMBL document CHEMBL5032516, “Synthesis and structural characterization of a monocarboxylic inhibitor for GRB2 SH2 domain” (Bioorg Med Chem Lett, 2021).

Key:
[1] = molecular target: T1, Growth factor receptor-bound protein 2 (Homo sapiens, UniProt P62993); assay: Displacement of FITC-Ahx-PVPePYINQSVPKRK-NH2 from N-terminal His6-tagged human full length GRB2 (1 to 217 residues) expressed in Escherichia coli by fluorescence anisotropy assay
[2] = Apparent permeability of compound at 500 uM after 5 hrs by PAMPA assay; format: ADME
[3] = molecular target: T1, Growth factor receptor-bound protein 2
[4] = Permeability of compound assessed as percentage transport at 500 uM after 5 hrs by PAMPA assay; format: ADME

| IC50 [1] [nM] | Papp at 5 h, 500 µM [2] [×10⁻⁶ cm/s] | Ki [3] [nM] | permeability [4] [%] | SMILES |
| --- | --- | --- | --- | --- |
| 740 | 19.2 | 140 | 24.3 | NC(=O)C[C@@H]1NC(=O)C2(CCCCC2)NC(=O)C[C@@H](c2ccc(CC(=O)O)cc2)/C=C/C[C@@H](Cc2cccc3ccccc23)CNC1=O |
| 350 |  | 16 | 0 | NC(=O)C[C@@H]1NC(=O)C2(CCCCC2)NC(=O)C[C@@H](c2ccc(CP(=O)(O)O)cc2)/C=C/C[C@@H](Cc2cccc3ccccc23)CNC1=O |
| > 20000 |  |  |  | COC(=O)Cc1ccc([C@H]2/C=C/C[C@@H](Cc3cccc4ccccc34)CNC(=O)[C@H](CC(N)=O)NC(=O)C3(CCCCC3)NC(=O)C2)cc1 |
